Target: human TRPA1 (Homo sapiens (Human), UniProt O75762)
Assay: In vitro inhibition of human TRPA1, whole cell patch configuration
Assay type: cell-based
Conditions: current activation 10 μM AITC, tested concentrations 320 pM to 3.2 μM, read-out: hTRPA1 IC50
Summary of the method: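 Whole-cell patch clamp, bath 150 mM NaCl, 10 mM HEPES, 1 mM EGTA, 3 mM MgCl2, pH 7.4 (sometimes 2 mM CaCl2, 1 mM MgCl2). Currents recorded continuously at −60 mV or by 400 ms ramps from −40 mV holding every 4 s; inward/outward currents taken at −80/80 mV, with controlled-temperature focal perfusion.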

Sequence of human TRPA1 (O75762 whole entry): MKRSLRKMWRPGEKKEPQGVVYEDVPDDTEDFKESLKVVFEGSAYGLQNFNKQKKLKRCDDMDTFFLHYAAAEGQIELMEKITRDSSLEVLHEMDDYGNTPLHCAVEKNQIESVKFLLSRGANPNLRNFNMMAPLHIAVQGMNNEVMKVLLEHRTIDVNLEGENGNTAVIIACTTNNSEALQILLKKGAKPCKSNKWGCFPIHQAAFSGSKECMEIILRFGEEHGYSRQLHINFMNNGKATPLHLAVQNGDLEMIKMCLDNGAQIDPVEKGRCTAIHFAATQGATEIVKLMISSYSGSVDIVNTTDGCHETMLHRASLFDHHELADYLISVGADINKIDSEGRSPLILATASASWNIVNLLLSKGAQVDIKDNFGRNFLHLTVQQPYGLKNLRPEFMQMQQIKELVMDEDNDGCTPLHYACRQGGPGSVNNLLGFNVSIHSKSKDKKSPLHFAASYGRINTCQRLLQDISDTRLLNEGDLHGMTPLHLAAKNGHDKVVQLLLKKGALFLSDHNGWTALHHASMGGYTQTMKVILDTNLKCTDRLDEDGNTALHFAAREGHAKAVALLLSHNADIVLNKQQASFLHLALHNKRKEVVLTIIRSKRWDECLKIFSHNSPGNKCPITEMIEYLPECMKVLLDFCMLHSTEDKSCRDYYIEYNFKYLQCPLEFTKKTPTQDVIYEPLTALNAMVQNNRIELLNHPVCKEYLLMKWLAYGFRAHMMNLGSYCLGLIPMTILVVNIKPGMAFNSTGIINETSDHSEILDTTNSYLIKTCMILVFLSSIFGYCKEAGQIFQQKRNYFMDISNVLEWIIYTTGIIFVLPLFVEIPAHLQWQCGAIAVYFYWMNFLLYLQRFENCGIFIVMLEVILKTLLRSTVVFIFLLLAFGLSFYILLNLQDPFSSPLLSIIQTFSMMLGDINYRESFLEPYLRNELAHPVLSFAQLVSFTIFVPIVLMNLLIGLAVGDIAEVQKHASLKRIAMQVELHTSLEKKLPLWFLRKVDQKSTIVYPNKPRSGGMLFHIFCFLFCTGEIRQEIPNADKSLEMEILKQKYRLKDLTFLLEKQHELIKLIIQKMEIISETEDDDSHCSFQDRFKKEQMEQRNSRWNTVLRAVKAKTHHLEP

**Q.** For `CC(=O)Cn1c(=O)c2c(ncn2[C@@H](C)C(=O)Nc2cncc(-c3cnc(C)c(Cl)c3)n2)n(C)c1=O` [Compound 140, (S)—N-(6-(5-chloro-6-methylpyridin-3-yl)pyrazin-2-yl)-2-(3-methyl-2,6-dioxo-1(2-oxopropyl)-2,3-dihydro-1H-purin-7(6H)-yl)propanamide], which IC50 is on record?
**A.** 32 nM

**Q.** `Cc1cc(Cn2c(=O)c3c(ncn3[C@@H](C)C(=O)Nc3csc(-c4cnc(C)c(C(F)(F)F)c4)n3)n(C)c2=O)no1` [Compound 112, (S)-2-(3-methyl-1-((5-methylisoxazol-3-yl)methyl)-2,6-dioxo-2,3-dihydro-1H-purin-7(6H)-yl)-N-(2-(6-methyl-5-(trifluoromethyl)pyridin-3-yl)thiazol-4-yl)propanamide] was tested. Which IC50 did it give?
**A.** 1 nM

**Q.** With `CCC(=O)Cn1c(=O)c2c(ncn2[C@@H](C)C(=O)Nc2cncc(-c3cnc(N4CC5C(C4)C5(F)F)nc3)n2)n(C)c1=O` (stereo partly drawn) [Compound 75, (2S)—N-(6-(2-(6,6-difluoro-3-azabicyclo[3.1.0]hexan-3-yl)pyrimidin-5-yl)pyrazin-2-yl)-2-(3-methyl-2,6-dioxo-1-(2-oxobutyl)-2,3-dihydro-1H-purin-7(6H)-yl)propanamide] as the compound, how does the IC50 read?
**A.** 3 nM

**Q.** With `COCC(=O)Cn1c(=O)c2c(ncn2[C@@H](C)C(=O)Nc2cccc(-c3cnc(N4CC5C(C4)C5(F)F)cn3)n2)n(C)c1=O` (some centres unmarked) [Compound 272] as the compound, how does the IC50 read?
**A.** 7 nM

**Q.** Which IC50 does the source give for `Cc1cc(Cn2c(=O)c3c(ncn3CC(=O)Nc3cccc(N4CCC(C(C)(C)F)CC4)n3)n(C)c2=O)no1` [Compound 219, N-(6-(4-(2-fluoropropan-2-yl)piperidin-1-yl)pyridin-2-yl)-2-(3-methyl-1-((5-methylisoxazol-3-yl)methyl)-2,6-dioxo-2,3-dihydro-1H-purin-7(6H)-yl)acetamide] here?
**A.** 23 nM

**Q.** `CC(=O)Cn1c(=O)c2c(ncn2[C@@H](C)C(=O)Nc2cncc(-c3cnc(N4CC5C(C4)C5(F)F)cn3)n2)n(C)c1=O` (stereo partly drawn) [Compound 164, (2S)—N-(5′-(6,6-difluoro-3-azabicyclo[3.1.0]hexan-3-yl)-[2,2′-bipyrazin]-6-yl)-2-(3-methyl-2,6-dioxo-1-(2-oxopropyl)-2,3-dihydro-1H-purin-7(6H)-yl)propanamide] was tested. Which IC50 did it give?
**A.** 21 nM

**Q.** For `CC(=O)Cn1c(=O)c2c(ncn2[C@@H](C)C(=O)Nc2cncc(-c3ccc(N4CC5CC5C4)nc3)n2)n(C)c1=O` (stereo partly drawn) [Compound 41, (2S)—N-(6-(6-(3-azabicyclo[3.1.0]hexan-3-yl)pyridin-3-yl)pyrazin-2-yl)-2-(3-methyl-2,6-dioxo-1-(2-oxopropyl)-2,3-dihydro-1H-purin-7(6H)-yl)propanamide], which IC50 is on record?
**A.** 12 nM

**Q.** For `Cc1ncc(-c2cccc(NC(=O)Cn3cnc4c3c(=O)n(CCCO)c(=O)n4C)n2)cc1C(F)(F)F` [Compound 236, 2-(1-(3-hydroxypropyl)-3-methyl-2,6-dioxo-2,3-dihydro-1H-purin-7(6H)-yl)-N-(6′-methyl-5′-(trifluoromethyl)-[2,3′-bipyridin]-6-yl)acetamide], which IC50 is on record?
**A.** 711 nM

**Q.** With `CC(=O)Cn1c(=O)c2c(ncn2CC(=O)Nc2cccc(-c3ccc(Cl)cc3)n2)n(C)c1=O` [Compound 181, N-(6-(4-chlorophenyl)pyridin-2-yl)-2-(3-methyl-2,6-dioxo-1-(2-oxopropyl)-1,2,3,6-tetrahydropurin-7-yl)acetamide] as the compound, how does the IC50 read?
**A.** 19 nM

**Q.** Which IC50 does the source give for `Cc1ncc(-c2cccc(NC(=O)[C@H](C)n3cnc4c3c(=O)n(Cc3ccon3)c(=O)n4C)n2)cc1C(F)(F)F` [Compound 136, (S)-2-(1-(isoxazol-3-ylmethyl)-3-methyl-2,6-dioxo-2,3-dihydro-1H-purin-7(6H)-yl)-N-(6′-methyl-5′-(trifluoromethyl)-[2,3′-bipyridin]-6-yl)propanamide] here?
**A.** 3 nM

**Q.** For `Cc1cc(Cn2c(=O)c3c(ncn3[C@@H](C)C(=O)Nc3cccc(-c4cnc(C(F)(F)F)c(C)c4)n3)n(C)c2=O)no1` [Compound 129, (S)-2-(3-methyl-1-((5-methylisoxazol-3-yl)methyl)-2,6-dioxo-2,3-dihydro-1H-purin-7(6H)-yl)-N-(5′-methyl-6′-(trifluoromethyl)-[2,3′-bipyridin]-6-yl)propanamide], which IC50 is on record?
**A.** 2 nM

Reference: patent publication US10221177B2 (HYDRA BIOSCIENCES, INC., priority 2014, dated 2019)
